This note sets out measurements from ChEMBL document CHEMBL1201862, “PubChem BioAssay data set” (2004).

Assay [1] can be described thus: Luminescence Cell-Based Dose Retest to Confirm Inhibitors of Cancer Stem Cells. [Related pubchem assays (depositor defined):AID2717, AID2721]. The assay is classed as functional. The settings on record: Homo sapiens.
For assay [2], the system named is Vero. In words: cells. In kind it is functional, cell-based. Particulars: Chlorocebus sabaeus.
Assay [3] relates to Vero. In words: cells. Particulars: Chlorocebus sabaeus. The assay is classed as functional.
Assay [4] has as its system HeLa. The assay can be described thus: HeLa cell cytotoxicity, dose response, cytotoxicity control for MITF activator project, CellTiter-Glo luminescence, cherry-pick samples (AID 540259). The assay is classed as functional, cell-based. Particulars: Homo sapiens. A general note: ATP-based viability assays read luminescence as a measure of living cells.
In assay [5] the test system is HEK293. In words: NOD1 signaling inhibitors, primary screen, cell-based, luminescence, uHTS (AID 1578). In kind it is functional. The settings on record: Homo sapiens.
The test system of assay [6] is HEK293. The assay can be described thus: cells. The assay is classed as functional, cell-based. The settings on record: Homo sapiens.
Assay [7] concerns HEK293. The assay can be described thus: cells. The assay is classed as functional, cell-based. Particulars: Homo sapiens. The source holds these as a separate data set.
Assay [8] concerns HEK293. The assay can be described thus: NOD2 signaling inhibitors in MDP-stimulated cells, cell-based, uHTS, luminescence (AID 2001). The assay is classed as functional. Particulars: Homo sapiens.
The target in assay [9] is T1, Heat shock factor protein 1 (Mus musculus, UniProt P38532).
T1 sequence (P38532 whole entry): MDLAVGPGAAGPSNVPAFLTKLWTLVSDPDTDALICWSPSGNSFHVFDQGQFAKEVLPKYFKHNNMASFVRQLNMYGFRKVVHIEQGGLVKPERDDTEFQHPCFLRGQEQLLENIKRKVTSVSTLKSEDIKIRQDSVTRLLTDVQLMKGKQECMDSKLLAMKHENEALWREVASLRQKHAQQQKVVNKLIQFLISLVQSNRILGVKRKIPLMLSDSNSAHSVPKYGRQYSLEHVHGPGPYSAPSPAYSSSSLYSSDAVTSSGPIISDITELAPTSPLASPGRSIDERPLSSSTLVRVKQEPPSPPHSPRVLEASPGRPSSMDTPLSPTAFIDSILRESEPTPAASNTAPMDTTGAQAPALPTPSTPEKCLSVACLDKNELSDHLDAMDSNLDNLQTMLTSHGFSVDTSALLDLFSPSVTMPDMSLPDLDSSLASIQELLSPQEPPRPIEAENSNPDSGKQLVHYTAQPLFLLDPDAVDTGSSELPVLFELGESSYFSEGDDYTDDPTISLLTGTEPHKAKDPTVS
In words: HSF1 potentiators in luciferase reporter cells, confirmation, cell-based, NIH3T3, luminescence, dose retest (AID 435004).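 Note: stress induced by proteasome inhibitor MG132 added 30 min after compound; luciferase reporter driven by HSF1 response element in NIH3T3 cells; actives raise luminescence as potentiators of the MG132 stress response.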 In kind it is functional. (In general: Reporter assays use an easily measured gene product as a stand-in for the process of interest.)

For assay [10], the target named is T2, Exodeoxyribonuclease V (Escherichia coli (strain K12), UniProt P04993+P07648+P08394).
T2 sequence (P04993 whole entry): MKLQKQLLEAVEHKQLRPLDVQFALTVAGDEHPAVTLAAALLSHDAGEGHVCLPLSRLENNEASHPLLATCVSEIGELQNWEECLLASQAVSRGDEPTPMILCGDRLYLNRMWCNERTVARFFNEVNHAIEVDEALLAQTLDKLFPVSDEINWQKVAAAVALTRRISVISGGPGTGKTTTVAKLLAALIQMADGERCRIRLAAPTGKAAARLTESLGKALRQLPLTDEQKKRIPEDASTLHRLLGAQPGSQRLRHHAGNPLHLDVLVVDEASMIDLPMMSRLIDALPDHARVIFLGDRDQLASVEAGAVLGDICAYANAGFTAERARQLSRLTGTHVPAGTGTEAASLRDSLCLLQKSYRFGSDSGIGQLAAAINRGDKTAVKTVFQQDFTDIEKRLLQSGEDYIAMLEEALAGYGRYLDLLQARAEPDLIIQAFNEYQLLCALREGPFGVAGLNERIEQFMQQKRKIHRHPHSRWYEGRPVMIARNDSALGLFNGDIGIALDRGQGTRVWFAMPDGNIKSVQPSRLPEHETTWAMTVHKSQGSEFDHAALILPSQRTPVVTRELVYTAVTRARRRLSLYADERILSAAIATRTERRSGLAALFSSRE
T2 sequence (P07648 whole entry): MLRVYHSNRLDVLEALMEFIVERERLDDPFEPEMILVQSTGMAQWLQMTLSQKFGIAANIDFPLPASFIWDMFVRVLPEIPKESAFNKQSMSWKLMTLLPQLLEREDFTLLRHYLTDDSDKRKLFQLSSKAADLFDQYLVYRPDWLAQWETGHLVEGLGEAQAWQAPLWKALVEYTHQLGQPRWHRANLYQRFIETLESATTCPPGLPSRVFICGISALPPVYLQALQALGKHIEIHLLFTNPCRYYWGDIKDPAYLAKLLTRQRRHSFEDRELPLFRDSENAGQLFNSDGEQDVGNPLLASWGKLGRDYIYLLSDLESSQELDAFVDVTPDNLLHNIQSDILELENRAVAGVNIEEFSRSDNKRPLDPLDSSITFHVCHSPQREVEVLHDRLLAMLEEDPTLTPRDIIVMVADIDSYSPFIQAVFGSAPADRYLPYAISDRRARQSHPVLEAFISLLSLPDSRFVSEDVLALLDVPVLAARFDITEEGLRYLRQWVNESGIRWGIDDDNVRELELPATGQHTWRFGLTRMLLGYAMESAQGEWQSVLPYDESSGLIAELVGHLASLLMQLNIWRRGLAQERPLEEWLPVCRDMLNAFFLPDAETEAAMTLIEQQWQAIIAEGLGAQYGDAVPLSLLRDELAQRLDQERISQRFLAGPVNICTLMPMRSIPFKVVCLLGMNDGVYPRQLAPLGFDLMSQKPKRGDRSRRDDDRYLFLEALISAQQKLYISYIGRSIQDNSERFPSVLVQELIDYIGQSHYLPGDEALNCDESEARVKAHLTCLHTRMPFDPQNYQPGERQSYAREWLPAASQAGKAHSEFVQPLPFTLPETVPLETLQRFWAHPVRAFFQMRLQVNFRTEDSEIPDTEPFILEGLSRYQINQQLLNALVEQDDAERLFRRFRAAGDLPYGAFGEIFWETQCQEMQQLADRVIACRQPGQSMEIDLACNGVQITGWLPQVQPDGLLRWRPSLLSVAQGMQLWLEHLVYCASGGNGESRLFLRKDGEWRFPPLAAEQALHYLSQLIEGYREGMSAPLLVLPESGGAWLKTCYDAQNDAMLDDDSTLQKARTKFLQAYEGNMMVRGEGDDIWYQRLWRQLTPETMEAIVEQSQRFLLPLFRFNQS
T2 sequence (P08394 whole entry): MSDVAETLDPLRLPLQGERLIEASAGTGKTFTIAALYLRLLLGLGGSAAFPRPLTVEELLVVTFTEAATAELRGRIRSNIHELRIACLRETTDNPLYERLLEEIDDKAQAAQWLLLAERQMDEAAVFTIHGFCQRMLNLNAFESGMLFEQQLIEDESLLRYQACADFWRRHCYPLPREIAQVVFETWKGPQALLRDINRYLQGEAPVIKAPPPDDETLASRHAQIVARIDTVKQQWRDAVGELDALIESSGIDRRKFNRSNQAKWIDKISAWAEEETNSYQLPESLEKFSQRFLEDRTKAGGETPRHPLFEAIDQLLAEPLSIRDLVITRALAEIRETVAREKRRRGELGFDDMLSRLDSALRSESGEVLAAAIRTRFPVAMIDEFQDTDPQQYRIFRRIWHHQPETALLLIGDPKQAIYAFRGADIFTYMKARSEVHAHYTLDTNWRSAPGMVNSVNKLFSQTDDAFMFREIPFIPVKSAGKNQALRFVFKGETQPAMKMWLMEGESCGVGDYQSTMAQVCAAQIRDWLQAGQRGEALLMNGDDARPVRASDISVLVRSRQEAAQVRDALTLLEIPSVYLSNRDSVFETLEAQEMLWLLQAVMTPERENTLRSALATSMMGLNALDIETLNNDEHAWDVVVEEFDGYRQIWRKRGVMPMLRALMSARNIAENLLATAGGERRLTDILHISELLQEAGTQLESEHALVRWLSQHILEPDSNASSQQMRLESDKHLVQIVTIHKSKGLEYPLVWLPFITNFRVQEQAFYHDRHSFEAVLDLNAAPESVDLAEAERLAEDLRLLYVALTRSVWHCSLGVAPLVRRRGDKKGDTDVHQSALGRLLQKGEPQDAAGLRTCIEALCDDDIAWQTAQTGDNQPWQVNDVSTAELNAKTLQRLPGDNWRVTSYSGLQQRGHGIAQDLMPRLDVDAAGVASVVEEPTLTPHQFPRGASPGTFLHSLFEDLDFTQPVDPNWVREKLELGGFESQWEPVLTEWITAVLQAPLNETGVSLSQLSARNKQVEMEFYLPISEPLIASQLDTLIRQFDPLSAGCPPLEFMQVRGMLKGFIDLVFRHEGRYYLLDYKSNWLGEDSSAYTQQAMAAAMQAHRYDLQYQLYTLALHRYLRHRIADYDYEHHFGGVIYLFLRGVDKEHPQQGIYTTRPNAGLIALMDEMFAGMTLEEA
The assay can be described thus: E. coli RecBCD inhibitors, dose response, counter-screen for AddAB inhibitor project, absorbance, V66 E. coli, mutant T4 phage (AID 492957). In kind it is functional, cell-based, Escherichia coli str. K-12 substr. MG1655. On the technique in general: Counterscreens check selectivity or assay interference.

A short description of assay [11]: Counterscreen for AddAB inhibitors: absorbance-based bacterial cell-based high throughput dose response assay for inhibitors of bacterial viability. [Related pubchem assays (depositor defined):AID435030, AID449728, AID449731, AID488942, AID488955, AID488956]. In kind it is functional.

Active and inactive are the calls of the source.

One may read the AC50 as the concentration giving half of the maximal activity seen. The IC50 is the concentration needed to halve the response being measured. As a reminder, the CC50 is the concentration giving 50% cytotoxicity. As to `C[C@]12CC[C@H](O)C[C@H]1CC[C@@H]1[C@@H]2CC[C@]2(C)[C@@H](C3=CC(=O)OC3)[C@@H](O)C[C@]12O` [GITOXIGENIN], in assay [1], the AC50 is 2.58 µM (active). For the same molecule, the IC50 in assay [2] was > 12.5 µM (active). Moreover, the half-maximal cytotoxic concentration (CC50) in assay [3] is 6.88 µM (active).
For the molecule `CC1(C)CN=c2s/c(=C\c3ccc(Cl)cc3)c(=O)n2C1`, the AC50 in assay [4] is 277 µM (active).
`COc1ccc(-c2nn(-c3ccccc3)cc2C(=O)NC(=S)NNC(=O)c2ccncc2)cc1`: the IC50 in [2] is 16.6 µM (active). The CC50 in assay [3] is 16.4 µM (active).
One may read the EC50 as the midpoint of the concentration-response curve. As to `C=C(C(=O)c1ccccc1)C(CC(=O)c1ccccc1)c1ccccc1` (stereo unspecified), the EC50 in assay [5] was 8.67 µM (active); in assay [9], 7.91 µM (active). Further, the IC50 in assay [6] was 1.42 µM (active); in [7] it was > 20 µM (inactive); in assay [8], 4.04 µM (active); in [2], 21.4 µM (active). Besides, in [1], the AC50 was 2.07 µM (active). Besides, the CC50 in [3] is 21 µM (active).
With `O=C1CCC(=O)N(O)CCCCCNC(=O)CCC(=O)N(O)CCCCCNC(=O)CCC(=O)N(O)CCCCCN1` [NOCARDAMINE], the IC50 in [10] and in assay [11] was > 119 µM (inactive) each time.
